{"source": "patent US20040005354A1", "about": "“Oral trimethobenzamide formulations and methods” (King Pharmaceuticals, Inc., priority 2002, published 2004)", "key": {"[1]": {"assay": "Safety assessment (adverse events, laboratory tests) in the four-way crossover study", "format": "in vivo, human (healthy subjects)", "excerpt": "Seventy-four healthy, non-smoking, male & female subjects, 18-65 years old were enrolled in this study. A total of 68 subjects completed all the requirements of the protocol. There were no enrollment violations. However, nine of the 74 subjects began the study during the third period of the initial group of subjects. All 74 subjects who received at least one dose of study medication were included in the safety analysis.\nThis study was a single center, randomized, open-label, 4-way crossover study in healthy subjects. Dosing was administered in the fasted state. Seventy-four (74) subjects were randomized into the study. All seventy-four subjects received one or more doses of study medication and are therefore included in the safety assessment. On Treatment Day 1 of the first treatment period, each subject was randomized to receive one of four possible study treatment sequences. The treatment groups consisted of the four treatments administered sequentially as DCAB, ADBC, BACD or CBDA. These treatments are shown below.\nA signed informed consent was obtained from each subject. For screening purposes, the following procedures were required of each subject and were performed by the clinical site within 30 days prior to the study: a complete physical examination including a medical history, vital signs, clinical laboratory safety tests on blood and urine, medications taken prior to and during the study, and a serum pregnancy test for female subjects.\nDuring the treatments, temperature, blood pressure, heart rate and respiratory rate were monitored as a safety measure. A physical examination and clinical laboratory tests were repeated at the completion of the study. Subjects were observed and questioned throughout the study for the occurrence of any adverse events.\nA total of 28 adverse events (AEs) were experienced; 27 were treatment emergent. Twenty-one (21) of these were assessed as related to study treatment. All related AEs are known to occur with trimethobenzamide and were primarily mild or moderate in intensity. One (1) severe AE occurred in one subject which was judged as unrelated to study treatment-severe pharyngitis. […] A summary of treatment emergent adverse events (AEs) is presented in Table 6 using the preferred medical term."}, "[2]": {"details": "cited from earlier work"}, "[3]": {"details": "in 48-72 hr; cited from earlier work"}}, "note": "Where two headings read alike, the source gives them in different places.", "data": [{"substance": "N-[2-(dimethylamino)-ethoxy]-3,4,5-trimethoxybenzamide hydrochloride [trimethobenzamide hydrochloride]", "values": [{"measurement": "PHARYNGITIS, subjects %", "setting": "[1]; sequence B A C D (N = 18)", "value": 0.0, "unit": "%"}, {"measurement": "PHARYNGITIS, subjects n", "setting": "[1]; sequence B A C D (N = 18)", "value": 0}, {"measurement": "RASH, subjects %", "setting": "[1]; sequence B A C D (N = 18)", "value": 5.6, "unit": "%"}, {"measurement": "RASH, subjects n", "setting": "[1]; sequence B A C D (N = 18)", "value": 1}, {"measurement": "ABDOMINAL PAIN, subjects %", "setting": "[1]; sequence C B D A (N = 18)", "value": 0.0, "unit": "%"}, {"measurement": "ABDOMINAL PAIN, subjects n", "setting": "[1]; sequence C B D A (N = 18)", "value": 0}, {"measurement": "CONJUNCTIVITIS, subjects %", "setting": "[1]; sequence C B D A (N = 18)", "value": 0.0, "unit": "%"}, {"measurement": "CONJUNCTIVITIS, subjects n", "setting": "[1]; sequence C B D A (N = 18)", "value": 0}, {"measurement": "DIARRHEA, subjects %", "setting": "[1]; sequence C B D A (N = 18)", "value": 5.6, "unit": "%"}, {"measurement": "DIARRHEA, subjects n", "setting": "[1]; sequence C B D A (N = 18)", "value": 1}, {"measurement": "DIZZINESS, subjects %", "setting": "[1]; sequence C B D A (N = 18)", "value": 0.0, "unit": "%"}, {"measurement": "DIZZINESS, subjects n", "setting": "[1]; sequence C B D A (N = 18)", "value": 0}, {"measurement": "EDEMA, PALMAR, subjects %", "setting": "[1]; sequence C B D A (N = 18)", "value": 0.0, "unit": "%"}, {"measurement": "EDEMA, PALMAR, subjects n", "setting": "[1]; sequence C B D A (N = 18)", "value": 0}, {"measurement": "ERYTHEMA, EXTERNAL NOSE, subjects %", "setting": "[1]; sequence C B D A (N = 18)", "value": 5.6, "unit": "%"}, {"measurement": "ERYTHEMA, EXTERNAL NOSE, subjects n", "setting": "[1]; sequence C B D A (N = 18)", "value": 1}, {"measurement": "ERYTHEMA, PALMAR, subjects %", "setting": "[1]; sequence C B D A (N = 18)", "value": 0.0, "unit": "%"}, {"measurement": "ERYTHEMA, PALMAR, subjects n", "setting": "[1]; sequence C B D A (N = 18)", "value": 0}, {"measurement": "HEADACHE, subjects %", "setting": "[1]; sequence C B D A (N = 18)", "value": 16.7, "unit": "%"}, {"measurement": "HEADACHE, subjects n", "setting": "[1]; sequence C B D A (N = 18)", "value": 3}, {"measurement": "HYPOTONIA, subjects %", "setting": "[1]; sequence C B D A (N = 18)", "value": 5.6, "unit": "%"}, {"measurement": "HYPOTONIA, subjects n", "setting": "[1]; sequence C B D A (N = 18)", "value": 1}, {"measurement": "INJECTION SITE REACTION, subjects %", "setting": "[1]; sequence C B D A (N = 18)", "value": 0.0, "unit": "%"}, {"measurement": "INJECTION SITE REACTION, subjects n", "setting": "[1]; sequence C B D A (N = 18)", "value": 0}, {"measurement": "LARYNGISMUS, subjects %", "setting": "[1]; sequence C B D A (N = 18)", "value": 0.0, "unit": "%"}, {"measurement": "LARYNGISMUS, subjects n", "setting": "[1]; sequence C B D A (N = 18)", "value": 0}, {"measurement": "LEG CRAMPS, subjects %", "setting": "[1]; sequence C B D A (N = 18)", "value": 0.0, "unit": "%"}, {"measurement": "LEG CRAMPS, subjects n", "setting": "[1]; sequence C B D A (N = 18)", "value": 0}, {"measurement": "NAUSEA AND VOMITING, subjects %", "setting": "[1]; sequence C B D A (N = 18)", "value": 0.0, "unit": "%"}, {"measurement": "NAUSEA AND VOMITING, subjects n", "setting": "[1]; sequence C B D A (N = 18)", "value": 0}, {"measurement": "NAUSEA, subjects %", "setting": "[1]; sequence C B D A (N = 18)", "value": 0.0, "unit": "%"}, {"measurement": "NAUSEA, subjects n", "setting": "[1]; sequence C B D A (N = 18)", "value": 0}, {"measurement": "Number of Subject With At Least one AE, %", "setting": "[1]; sequence C B D A (N = 18)", "value": 22.2, "unit": "%"}, {"measurement": "Number of Subject With No AE, %", "setting": "[1]; sequence C B D A (N = 18)", "value": 77.8, "unit": "%"}, {"measurement": "PARESTHESIA, subjects %", "setting": "[1]; sequence C B D A (N = 18)", "value": 0.0, "unit": "%"}, {"measurement": "PARESTHESIA, subjects n", "setting": "[1]; sequence C B D A (N = 18)", "value": 0}, {"measurement": "PHARYNGITIS, subjects %", "setting": "[1]; sequence C B D A (N = 18)", "value": 0.0, "unit": "%"}, {"measurement": "PHARYNGITIS, subjects n", "setting": "[1]; sequence C B D A (N = 18)", "value": 0}, {"measurement": "RASH, subjects %", "setting": "[1]; sequence C B D A (N = 18)", "value": 0.0, "unit": "%"}, {"measurement": "RASH, subjects n", "setting": "[1]; sequence C B D A (N = 18)", "value": 0}, {"measurement": "ABDOMINAL PAIN, subjects %", "setting": "[1]; sequence D C A B (N = 18)", "value": 0.0, "unit": "%"}, {"measurement": "ABDOMINAL PAIN, subjects n", "setting": "[1]; sequence D C A B (N = 18)", "value": 0}, {"measurement": "CONJUNCTIVITIS, subjects %", "setting": "[1]; sequence D C A B (N = 18)", "value": 0.0, "unit": "%"}, {"measurement": "CONJUNCTIVITIS, subjects n", "setting": "[1]; sequence D C A B (N = 18)", "value": 0}, {"measurement": "DIARRHEA, subjects %", "setting": "[1]; sequence D C A B (N = 18)", "value": 0.0, "unit": "%"}, {"measurement": "DIARRHEA, subjects n", "setting": "[1]; sequence D C A B (N = 18)", "value": 0}, {"measurement": "DIZZINESS, subjects %", "setting": "[1]; sequence D C A B (N = 18)", "value": 0.0, "unit": "%"}, {"measurement": "DIZZINESS, subjects n", "setting": "[1]; sequence D C A B (N = 18)", "value": 0}, {"measurement": "EDEMA, PALMAR, subjects %", "setting": "[1]; sequence D C A B (N = 18)", "value": 0.0, "unit": "%"}, {"measurement": "EDEMA, PALMAR, subjects n", "setting": "[1]; sequence D C A B (N = 18)", "value": 0}, {"measurement": "ERYTHEMA, EXTERNAL NOSE, subjects %", "setting": "[1]; sequence D C A B (N = 18)", "value": 0.0, "unit": "%"}, {"measurement": "ERYTHEMA, EXTERNAL NOSE, subjects n", "setting": "[1]; sequence D C A B (N = 18)", "value": 0}, {"measurement": "ERYTHEMA, PALMAR, subjects %", "setting": "[1]; sequence D C A B (N = 18)", "value": 0.0, "unit": "%"}, {"measurement": "ERYTHEMA, PALMAR, subjects n", "setting": "[1]; sequence D C A B (N = 18)", "value": 0}, {"measurement": "HEADACHE, subjects %", "setting": "[1]; sequence D C A B (N = 18)", "value": 16.7, "unit": "%"}, {"measurement": "HEADACHE, subjects n", "setting": "[1]; sequence D C A B (N = 18)", "value": 3}, {"measurement": "HYPOTONIA, subjects %", "setting": "[1]; sequence D C A B (N = 18)", "value": 0.0, "unit": "%"}, {"measurement": "HYPOTONIA, subjects n", "setting": "[1]; sequence D C A B (N = 18)", "value": 0}, {"measurement": "INJECTION SITE REACTION, subjects %", "setting": "[1]; sequence D C A B (N = 18)", "value": 0.0, "unit": "%"}, {"measurement": "INJECTION SITE REACTION, subjects n", "setting": "[1]; sequence D C A B (N = 18)", "value": 0}, {"measurement": "LARYNGISMUS, subjects %", "setting": "[1]; sequence D C A B (N = 18)", "value": 0.0, "unit": "%"}, {"measurement": "LARYNGISMUS, subjects n", "setting": "[1]; sequence D C A B (N = 18)", "value": 0}, {"measurement": "LEG CRAMPS, subjects %", "setting": "[1]; sequence D C A B (N = 18)", "value": 5.6, "unit": "%"}, {"measurement": "LEG CRAMPS, subjects n", "setting": "[1]; sequence D C A B (N = 18)", "value": 1}, {"measurement": "NAUSEA AND VOMITING, subjects %", "setting": "[1]; sequence D C A B (N = 18)", "value": 0.0, "unit": "%"}, {"measurement": "NAUSEA AND VOMITING, subjects n", "setting": "[1]; sequence D C A B (N = 18)", "value": 0}, {"measurement": "NAUSEA, subjects %", "setting": "[1]; sequence D C A B (N = 18)", "value": 0.0, "unit": "%"}, {"measurement": "NAUSEA, subjects n", "setting": "[1]; sequence D C A B (N = 18)", "value": 0}, {"measurement": "Number of Subject With At Least one AE, %", "setting": "[1]; sequence D C A B (N = 18)", "value": 27.8, "unit": "%"}, {"measurement": "Number of Subject With No AE, %", "setting": "[1]; sequence D C A B (N = 18)", "value": 72.2, "unit": "%"}, {"measurement": "PARESTHESIA, subjects %", "setting": "[1]; sequence D C A B (N = 18)", "value": 5.6, "unit": "%"}, {"measurement": "PARESTHESIA, subjects n", "setting": "[1]; sequence D C A B (N = 18)", "value": 1}, {"measurement": "PHARYNGITIS, subjects %", "setting": "[1]; sequence D C A B (N = 18)", "value": 0.0, "unit": "%"}, {"measurement": "PHARYNGITIS, subjects n", "setting": "[1]; sequence D C A B (N = 18)", "value": 0}, {"measurement": "RASH, subjects %", "setting": "[1]; sequence D C A B (N = 18)", "value": 0.0, "unit": "%"}, {"measurement": "RASH, subjects n", "setting": "[1]; sequence D C A B (N = 18)", "value": 0}, {"measurement": "DURATION", "setting": "[2]; IM", "value": "2 to 3", "unit": "h"}, {"measurement": "ONSET", "setting": "[2]; IM", "value": "15 to 35", "unit": "min"}, {"measurement": "DURATION", "setting": "[2]; PO", "value": "3 to 4", "unit": "h"}, {"measurement": "ONSET", "setting": "[2]; PO", "value": "10 to 40", "unit": "min"}, {"measurement": "DURATION", "setting": "[2]; Rect", "value": "3 to 4", "unit": "h"}, {"measurement": "ONSET", "setting": "[2]; Rect", "value": "10 to 40", "unit": "min"}, {"measurement": "drug excreted unchanged in the urine", "setting": "[3]", "value": "30%-50%"}]}]}
